Results as given in patent US9907847B2, “Pyrrolopyrimidines as therapeutic agents for the treatment of diseases” (GlaxoSmithKline LLC, priority 2012, dated 2018).
Where a name gives a salt, the structure may show the parent alone.

Legend:
IFN-α = assay: Induction of interferon-α using fresh human whole blood (WB); type: cell-based; conditions: three donors, overnight incubation, response as % of 2 μM resiquimod control, read-out: mean pEC50 for IFN-α (converted)
Experimental: (§1) Assay for the Induction of Interferon-[…] and TNF-[…] Using Fresh Human Whole Blood (WB)
(§2) Compounds were prepared at 100× required concentration in DMSO in flat-bottom microtitre plates at a volume of 1.5 μL. Columns 1-10 contained a 1 in 4 serial dilution of the test compound. Included on each plate was a serial dilution of the TLR7/8 agonist resiquimod as a standard and Column 11 contained 1.5 μl of 200 μM resiquimod (giving a 2 μM final concentration, used to define the approximate maximal response to resiquimod). Each compound was assayed in duplicate for each donor.
(§3) Blood samples from three human donors were collected into sodium heparin (10 U/ml). 150 μl of whole Blood was dispensed into Col 1 to 11 of assay plates containing 1.5 μl of test compound or standard in DMSO. Plates were placed in an incubator overnight (37° C., 95% air, 5% CO2). Following the overnight incubation, plates were removed from the incubator & mixed on an orbital shaker for approximately 1 minute. 100 μl of 0.9% saline was added to each well and the plates mixed again on an orbital shaker. Plates were then centrifuged (2500 rpm, 10 mins), after which a sample of plasma was removed using a Biomek FX and assayed for both IFN-α and TNF-α using the MSD (Mesoscale Discovery) electrochemiluminescence assay platform. The IFN-α assay was carried out similarly to that described above. The TNF-α assay was carried out as per kit instructions (Cat No K111BHB).
(§4) Cytokine released was expressed as a percentage of the 2 μM resiquimod control (column 11). This percentage was plotted against compound concentration and the pEC50 for the response determined by non-linear least squares curve fitting. For the IFN-α responses, generally a 4 parameter logistic model was selected. For the TNF-α responses where a clear maximum response was obtained (i.e. a well defined plateau in the response was observed) then a 4 parameter model was generally used. If the upper asymptote of the curve wasn't well defined then the curve fitting was generally constrained to a maximal response of 100% (i.e. to the response to 2 μM resiquimod) or to the response of the highest concentration tested if this was greater than the resiquimod response. Some curves were bell shaped for one or both cytokines and the cytokine data on the down slope of the bell shaped response (i.e. concentrations above those giving the maximal response) were generally excluded from the fit, usually with the exception of the concentration immediately above the peak response. Curve fitting thus concentrated on the up slope of the dose response curve.

TNF-α = assay: Induction of TNF-α using fresh human whole blood (WB); type: cell-based; conditions: three donors, overnight incubation, response as % of 2 μM resiquimod control, read-out: mean pEC50 for TNF-α (converted)
Experimental: as §1, §2, §3, §4

| EC50 (IFN-α) [µM] | EC50 (TNF-α) [µM] | Structure (SMILES) |
| --- | --- | --- |
| ≤ 5.01 | ≥ 5.01 | CCCCc1nc(N)c2[nH]c(C)c(CCCCN3CCCCC3)c2n1 [Example 8, 2-Butyl-6-methyl-7-(4-(piperidin-1-yl)butyl)-5H-pyrrolo[3,2-d]pyrimidin-4-amine] |
| ≤ 5.01 | ≥ 5.01 | CCCCc1nc(N)c2[nH]cc(CCCCCN3CC[C@@H](F)C3)c2n1 [Example 24, (R)-2-Butyl-7-(5-(3-fluoropyrrolidin-1-yl)pentyl)-5H-pyrrolo[3,2-d]pyrimidin-4-amine] |
| ≤ 5.01 | ≥ 5.01 | CCCCc1nc(N)c2[nH]cc(CCCCCCN3CCCC3)c2n1 [Example 10, 2-Butyl-7-(6-(pyrrolidin-1-yl)hexyl)-5H-pyrrolo[3,2-d]pyrimidin-4-amine] |
| ≤ 5.01 | ≥ 5.01 | CCCCc1nc(N)c2[nH]cc(CCCCCN3CCCCCC3)c2n1 [Example 12, 7-(5-(Azepan-1-yl)pentyl)-2-butyl-5H-pyrrolo[3,2-d]pyrimidin-4-amine] |
| ≤ 5.01 | ≥ 5.01 | CCCCc1nc(N)c2[nH]c(C)c(CCCCCN3CCC(F)CC3)c2n1 [Example 39, 2-Butyl-7-(5-(4-fluoropiperidin-1-yl)pentyl)-6-methyl-5H-pyrrolo[3,2-d]pyrimidin-4-amine] |
| ≤ 5.01 | ≥ 5.01 | CCCCc1nc(N)c2[nH]cc(CCCCCN3CC(F)C3)c2n1 [Example 37, 2-Butyl-7-(5-(3-fluoroazetidin-1-yl)pentyl)-5H-pyrrolo[3,2-d]pyrimidin-4-amine] |
| ≤ 5.01 | ≥ 5.01 | CCCCc1nc(N)c2[nH]cc(CCCCCN3CCC(O)CC3)c2n1 [Example 23, 1-(5-(4-Amino-2-butyl-5H-pyrrolo[3,2-d]pyrimidin-7-yl)pentyl)piperidin-4-ol] |
| ≤ 5.01 | ≥ 5.01 | CCCCc1nc(N)c2[nH]cc(CCCCCN3CCC[C@H]3C)c2n1 [Example 35, (R)-2-Butyl-7-(5-(2-methylpyrrolidin-1-yl)pentyl)-5H-pyrrolo[3,2-d]pyrimidin-4-amine] |
| ≤ 5.01 | ≥ 5.01 | COCCc1nc(N)c2[nH]cc(CCCCCN3CCCC3)c2n1 [Example 43, 2-(2-Methoxyethyl)-7-(5-(pyrrolidin-1-yl)pentyl)-5H-pyrrolo[3,2-d]pyrimidin-4-amine] |
| ≤ 5.01 | ≥ 5.01 | CCCCc1nc(N)c2[nH]c(C)c(CCCCCCN3CCCCC3)c2n1 [Example 6, 2-Butyl-6-methyl-7-(6-(piperidin-1-yl)hexyl)-5H-pyrrolo[3,2-d]pyrimidin-4-amine] |
| ≤ 5.01 | ≥ 5.01 | CCCCc1nc(N)c2[nH]c(C)c(CCCCCN3CCCCC3)c2n1 [Example 7, 2-Butyl-6-methyl-7-(5-(piperidin-1-yl)pentyl)-5H-pyrrolo[3,2-d]pyrimidin-4-amine] |
| ≤ 5.01 | ≥ 5.01 | CCCCc1nc(N)c2[nH]c(C)c(CCCCN3CCCC3)c2n1 [Example 19, 2-Butyl-6-methyl-7-(4-(pyrrolidin-1-yl)butyl)-5H-pyrrolo[3,2-d]pyrimidin-4-amine] |
| ≤ 5.01 | ≥ 5.01 | COCCc1nc(N)c2[nH]cc(CCCCCN3CC[C@H](F)C3)c2n1 [Example 27, (S)-7-(5-(3-Fluoropyrrolidin-1-yl)pentyl)-2-(2-methoxyethyl)-5H-pyrrolo[3,2-d]pyrimidin-4-amine formate] |
| ≤ 5.01 | ≥ 5.01 | CCCCc1nc(N)c2[nH]cc(CCCCCN3CCC(F)(F)CC3)c2n1 [Example 20, 2-Butyl-7-(5-(4,4-difluoropiperidin-1-yl)pentyl)-5H-pyrrolo[3,2-d]pyrimidin-4-amine] |
| ≤ 5.01 | ≥ 5.01 | CCCCc1nc(N)c2[nH]cc(CCCCCN3CC[C@H](O)C3)c2n1 [Example 28, (S)-1-(5-(4-Amino-2-butyl-5H-pyrrolo[3,2-d]pyrimidin-7-yl)pentyl)pyrrolidin-3-ol] |
| ≤ 5.01 | ≥ 5.01 | CCCCc1nc(N)c2[nH]cc(CCCCCN3CC[C@H](F)C3)c2n1 [Example 25, (S)-2-Butyl-7-(5-(3-fluoropyrrolidin-1-yl)pentyl)-5H-pyrrolo[3,2-d]pyrimidin-4-amine] |
| ≤ 5.01 | ≥ 5.01 | CCCCc1nc(N)c2[nH]cc(CCCCN3CCCCC3)c2n1 [Example 3, 2-Butyl-7-(4-(piperidin-1-yl)butyl)-5H-pyrrolo[3,2-d]pyrimidin-4-amine] |

| EC50 (IFN-α) [µM] | EC50 (TNF-α) [µM] | Structure (SMILES) |
| --- | --- | --- |
| ≤ 5.01 | ≥ 5.01 | COCCc1nc(N)c2[nH]cc(CCCCCCN3CCCCCC3)c2n1 [Example 30, 7-(6-(Azepan-1-yl)hexyl)-2-(2-methoxyethyl)-5H-pyrrolo[3,2-d]pyrimidin-4-amine] |
| ≤ 5.01 | ≥ 5.01 | CCCCc1nc(N)c2[nH]cc(CCCCCN3CC(O)C3)c2n1 [Example 29, 1-(5-(4-Amino-2-butyl-5H-pyrrolo[3,2-d]pyrimidin-7-yl)pentyl)azetidin-3-ol formate] |
| ≤ 5.01 | ≥ 5.01 | CCCCc1nc(N)c2[nH]c(C)c(CCCCCN3CCCC3)c2n1 [Example 16, 2-Butyl-6-methyl-7-(5-(pyrrolidin-1-yl)pentyl)-5H-pyrrolo[3,2-d]pyrimidin-4-amine] |
| ≤ 5.01 | ≥ 5.01 | CCCCc1nc(N)c2[nH]cc(CCCCCCN3CC[C@H](F)C3)c2n1 [Example 33, (S)-2-Butyl-7-(6-(3-fluoropyrrolidin-1-yl)hexyl)-5H-pyrrolo[3,2-d]pyrimidin-4-amine] |
| ≤ 5.01 | ≥ 5.01 | CCCCc1nc(N)c2[nH]c(C)c(CCCCCN3CCC3)c2n1 [Example 18, 7-(5-(Azetidin-1-yl)pentyl)-2-butyl-6-methyl-5H-pyrrolo[3,2-d]pyrimidin-4-amine] |
| ≤ 5.01 | ≥ 5.01 | CCCCc1nc(N)c2[nH]cc(CCCCCCN3CCCCC3)c2n1 [Example 1, 2-Butyl-7-(6-(piperidin-1-yl)hexyl)-5H-pyrrolo[3,2-d]pyrimidin-4-amine formate] |
| ≤ 5.01 | ≥ 5.01 | CCCCCc1nc(N)c2[nH]cc(CCCCCCN3CCCCC3)c2n1 [Example 11, 2-Pentyl-7-(6-(piperidin-1-yl)hexyl)-5H-pyrrolo[3,2-d]pyrimidin-4-amine] |
| ≤ 5.01 | ≥ 5.01 | CCCCc1nc(N)c2[nH]c(C)c(CCCCCN3CC(F)C3)c2n1 [Example 42, 2-Butyl-7-(5-(3-fluoroazetidin-1-yl)pentyl)-6-methyl-5H-pyrrolo[3,2-d]pyrimidin-4-amine] |
| ≤ 5.01 | ≥ 5.01 | CCCCc1nc(N)c2[nH]cc(CCCCCN3CCC(F)CC3)c2n1 [Example 21, 2-Butyl-7-(5-(4-fluoropiperidin-1-yl)pentyl)-5H-pyrrolo[3,2-d]pyrimidin-4-amine] |
| ≤ 5.01 | ≥ 5.01 | CCCCc1nc(N)c2[nH]c(C)c(CCCCCCN3CCC3)c2n1 [Example 15, 7-(6-(Azetidin-1-yl)hexyl)-2-butyl-6-methyl-5H-pyrrolo[3,2-d]pyrimidin-4-amine] |
| ≤ 5.01 | ≥ 5.01 | CCCCc1nc(N)c2[nH]cc(CCCCCN3CCCCC3)c2n1 [Example 2, 2-Butyl-7-(5-(piperidin-1-yl)pentyl)-5H-pyrrolo[3,2-d]pyrimidin-4-amine] |
| ≤ 5.01 | ≥ 5.01 | CCCCc1nc(N)c2[nH]cc(CCCCCN3CCC3)c2n1 [Example 17, 7-(5-(Azetidin-1-yl)pentyl)-2-butyl-5H-pyrrolo[3,2-d]pyrimidin-4-amine] |
| ≤ 5.01 | ≥ 5.01 | CCCCc1nc(N)c2[nH]c(C)c(CCCCN3CCCCCC3)c2n1 [Example 13, 7-(4-(Azepan-1-yl)butyl)-2-butyl-6-methyl-5H-pyrrolo[3,2-d]pyrimidin-4-amine] |
| ≤ 5.01 | ≥ 5.01 | CCCCc1nc(N)c2[nH]c(C)c(CCCCCCN3CCCC3)c2n1 [Example 14, 2-Butyl-6-methyl-7-(6-(pyrrolidin-1-yl)hexyl)-5H-pyrrolo[3,2-d]pyrimidin-4-amine] |
| ≤ 5.01 | ≥ 5.01 | COCCc1nc(N)c2[nH]cc(CCCCCN3CC[C@@H](F)C3)c2n1 [Example 26, (R)-7-(5-(3-Fluoropyrrolidin-1-yl)pentyl)-2-(2-methoxyethyl)-5H-pyrrolo[3,2-d]pyrimidin-4-amine formate] |
| ≤ 5.01 | ≥ 5.01 | CCCCc1nc(N)c2[nH]cc(CCCCCCN3CCC(F)CC3)c2n1 [Example 31, 2-Butyl-7-(6-(4-fluoropiperidin-1-yl)hexyl)-5H-pyrrolo[3,2-d]pyrimidin-4-amine] |
